Laboratory results: publication PMC5656836, “Distinct activation mechanisms trigger the trypanocidal activity of DNA damaging prodrugs” (Molecular Microbiology, 2017)
Where two headings read alike, the source gives them in different places.

Experiments:
Type in all cases: cell-based
[1] = system: bloodstream form T. brucei; test: Growth inhibition of wild type / control bloodstream form T. brucei (resazurin); conditions: for EC50: Trypanosoma brucei
T. cruzi epimastigotes = test: Growth inhibition of T. cruzi epimastigotes (resazurin); conditions: for EC50: Trypanosoma cruzi, 336 h, read-out: T. cruzi EC50
L. major promastigotes = test: Growth inhibition of L. major promastigotes (resazurin); conditions: for EC50: Leishmania major, 144 h, read-out: L. major EC50
[2] = system: differentiated THP‐1 cells; test: Mammalian inhibition assay, differentiated THP-1 cells; conditions: Homo sapiens, read-out: THP‐1 EC50
[3] = system: T. brucei over expressing TbNTR (Tbntr++); test: microbe, parasite or virus in culture; conditions: for EC50: Trypanosoma brucei, read-out: EC50 Tbntr++
[4] = system: T. brucei Tbsnm1 null mutants (ΔTbsnm1); test: microbe, parasite or virus in culture; conditions: for EC50: Trypanosoma brucei, read-out: EC50 ΔTbsnm1
[5] = system: T. brucei over expressing TbCPR2 (Tbcpr2++); test: microbe, parasite or virus in culture; conditions: for EC50: Trypanosoma brucei, read-out: EC50 Tbcpr2++
[6] = 72 h, bloodstream form, 3 days, Table 1, activity of some compounds previously reported (Hall et al., 2012), read-out: T. brucei EC50
[7] = 72 h, differentiated THP‐1 cells, 3 days
[8] = Selectivity Index: fold difference in EC50 of THP‐1 line relative to parasite
[9] = Table 2, parasites expressing wild type levels, read-out: EC50 Control
[10] = Table 4, wild type T. brucei, read-out: EC50 Control

SMILES	EC50 [1, 6] [nM]	EC50 (T. cruzi epimastigotes; epimastigotes, 14 days) [nM]	EC50 (L. major promastigotes; promastigotes, 6 days) [nM]	T. cruzi SI (T. cruzi epimastigotes)	EC50 ([1]; 72 h, read-out: T. brucei EC50) [nM]	EC50 (T. cruzi epimastigotes) [nM]	EC50 (L. major promastigotes) [nM]	other results
O=C1C(Br)=C(N2CC2)C(=O)C(Br)=C1N1CC1 [ABQ3]	400 ± 30	6200 ± 1160	199 ± 4					
O=C1C(F)=C(N2CC2)C(=O)C(F)=C1N1CC1 [ABQ4]	1180 ± 160	106 ± 25	663 ± 6					
COC1=C(N2CC2)C(=O)C(OC)=C(N2CC2)C1=O [ABQ6]	283 ± 41	205 ± 53	664 ± 2	5				EC50 [2, 7]: 1070 ± 159 nM
CCCOC1=C(N2CC2)C(=O)C(OCCC)=C(N2CC2)C1=O [ABQ8]				2	670 ± 30	1300 ± 108	1870 ± 184	T. brucei SI [1]: 4; L. major SI (L. major promastigotes): 2; EC50 ([2]; THP-1, 72 h): 2950 ± 770 nM
CC(C)NC1=C(N2CC2)C(=O)C(NC(C)C)=C(N2CC2)C1=O [ABQ13]					> 10000	5550 ± 240	> 10000	
O=C1C(F)=C(N2CC2)C(=O)C(N2CCOCC2)=C1N1CC1 [ABQ14]					> 10000	445 ± 30	2270 ± 17	
CC(=O)NC1=C(N2CC2)C(=O)C(NC(C)=O)=C(N2CC2)C1=O [ABQ15]					> 10000	3310 ± 200	> 10000	
C[C@@H]1CN1C1=CC(=O)C(N2C[C@H]2C)=CC1=O [ABQ23]	2300 ± 60	2180 ± 670	348 ± 166	<1				T. brucei SI [1, 8]: <1; EC50 [1, 9]: 2940 ± 420 nM; EC50 [1, 10]: 2300 ± 60 nM; Fold difference in EC50 Tbntr++ relative to control [3]: 3315 ± 540 (1.13); EC50 [3]: 3320 nM; Ratio of EC50 values ΔTbsnm1 / control [4]: 1.01; Susceptibility of Tbsnm1 null mutants relative to wild type / control (fold more susceptible) [4]: no significant difference; EC50 [4]: 2410 ± 160 nM; EC50 [2, 7]: < 400 nM; Fold difference in EC50 Tbcpr2++ relative to control [5]: 3556 ± 96 (1.21); EC50 [5]: 3560 nM
C[C@H]1CN1C1=CC(=O)C(N2C[C@@H]2C)=CC1=O [ABQ24]	1470 ± 120	37 ± 1	473 ± 123	<11				T. brucei SI [1, 8]: <1; EC50 [1, 9]: 1470 ± 120 nM; EC50 [1, 10]: 1470 ± 120 nM; Fold difference in EC50 Tbntr++ relative to control [3]: 2090 ± 160 (1.42); EC50 [3]: 2090 nM; Ratio of EC50 values ΔTbsnm1 / control [4]: 0.77; Susceptibility of Tbsnm1 null mutants relative to wild type / control (fold more susceptible) [4]: no significant difference; EC50 [4]: 1130 ± 100 nM; L. major SI (L. major promastigotes): <1; EC50 [2, 7]: < 400 nM; Fold difference in EC50 Tbcpr2++ relative to control [5]: 1698 ± 23 (1.16); EC50 [5]: 1700 nM
CC1CN1C1=C(Br)C(=O)C(N2CC2C)=C(Br)C1=O (stereo not shown) [ABQ25]	> 10000		80 ± 6					L. major EC50 (L. major promastigotes; promastigotes, 6 days): high potency
CC1(C)CN1C1=C(Br)C(=O)C(N2CC2(C)C)=C(Br)C1=O [ABQ26]					> 10000	8640 ± 736	2360 ± 230	
CC1CN1C1=C(Cl)C(=O)C(N2CC2C)=C(Cl)C1=O (stereo not shown) [ABQ27]	> 10000	620 ± 180	210 ± 10					
CC1CN1C1=C(F)C(=O)C(N2CC2C)=C(F)C1=O (stereo not shown) [ABQ29]		975 ± 25	175 ± 5					
CC1(C)CN1C1=C(F)C(=O)C(N2CC2(C)C)=C(F)C1=O [ABQ30]				4	7400 ± 190	980 ± 25	174 ± 10	T. brucei SI [1]: <1; EC50 ([1]; read-out: EC50 Control): 7400 ± 190 nM; Fold difference in EC50 Tbntr++ relative to control [3]: 8670 ± 1670 (1.12); EC50 [3]: 8670 nM; L. major SI (L. major promastigotes): 22; EC50 ([2]; THP-1, 72 h): 3750 ± 320 nM
